Laboratory results taken from ChEMBL document CHEMBL1201862, “PubChem BioAssay data set” (2004).
Calls of active or inactive are those of the source.

What was measured:
[1] = HPDE-C7 pancreatic duct cell viability loss – fluorescence, HTS (AID 430); assay type: functional, cell-based; conditions: Homo sapiens
[2] = molecular target: T1, Corticotropin-releasing factor receptor 2/Corticotropin-releasing factor-binding protein (Homo sapiens, UniProt P24387+Q13324); test: Dose Response confirmation of uHTS hits for small molecule antagonists of the CRF-binding protein and CRF-R2 receptor complex.; assay type: functional; conditions: read-out: IC50_Mean
T1 sequence (Q13324 whole entry): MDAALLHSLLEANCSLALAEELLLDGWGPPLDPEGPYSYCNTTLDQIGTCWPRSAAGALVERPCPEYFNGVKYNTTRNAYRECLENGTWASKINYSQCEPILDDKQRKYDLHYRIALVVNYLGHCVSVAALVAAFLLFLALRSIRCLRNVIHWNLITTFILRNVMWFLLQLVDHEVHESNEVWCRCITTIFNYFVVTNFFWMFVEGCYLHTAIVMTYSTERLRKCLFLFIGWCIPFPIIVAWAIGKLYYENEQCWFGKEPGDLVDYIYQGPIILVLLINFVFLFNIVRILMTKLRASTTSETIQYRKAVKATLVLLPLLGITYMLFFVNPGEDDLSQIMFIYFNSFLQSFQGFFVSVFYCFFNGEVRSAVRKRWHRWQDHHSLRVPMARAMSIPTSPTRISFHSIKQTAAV
T1 sequence (P24387 whole entry): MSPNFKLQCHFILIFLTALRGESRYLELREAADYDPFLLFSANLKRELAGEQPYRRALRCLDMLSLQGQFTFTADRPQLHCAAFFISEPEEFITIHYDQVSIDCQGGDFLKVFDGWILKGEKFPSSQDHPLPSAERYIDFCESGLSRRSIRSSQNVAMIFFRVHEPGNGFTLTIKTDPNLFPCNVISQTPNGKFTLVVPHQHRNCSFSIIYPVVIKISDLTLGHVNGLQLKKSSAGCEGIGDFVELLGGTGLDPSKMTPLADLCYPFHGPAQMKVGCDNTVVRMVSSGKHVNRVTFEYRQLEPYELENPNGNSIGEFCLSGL

[3] = viability loss of HPDE-C7K cells – cell-based, fluorescence, HTS, primary screen (AID 431); assay type: functional; conditions: Homo sapiens
[4] = molecular target: T1, Corticotropin-releasing factor receptor 2/Corticotropin-releasing factor-binding protein; test: activators of CRF receptor 2 with binding protein – uHTS hits, confirmation (AID 602473); assay type: functional; conditions: read-out: EC50_Mean
[5] = molecular target: Ion channel NompC (Danio rerio, UniProt Q7T1G6); test: Fluorescence counterscreen assay for TRPML3 agonists: dose response cell-based high-throughput screening assay to identify agonists of the transient receptor potential channel N1 (TRPN1). [Related pubchem assays: 1526, 1424, 1448 ]; assay type: functional
[6] = molecular target: Mucolipin-3 (Homo sapiens, UniProt Q8TDD5); test: Dose response cell-based high-throughput screening assay for agonists of the transient receptor potential channel ML3 (TRPML3). [Related pubchem assays: 1526, 1424, 1448 ]; assay type: functional
[7] = molecular target: T2, Aryl hydrocarbon receptor (Homo sapiens, UniProt P35869); test: Luminescence-based cell-based high throughput dose response assay for activators of the Aryl Hydrocarbon Receptor (AHR). [Related pubchem assays: 2796 (Primary screen (AHR activators in singlicate)), 2845 (Confirmation screen (AHR activators in triplicate)), 434939 (Counterscreen (PXR activators in triplicate)), 2804 (Summary (AHR activators))]; assay type: ADME
T2 sequence (P35869 whole entry): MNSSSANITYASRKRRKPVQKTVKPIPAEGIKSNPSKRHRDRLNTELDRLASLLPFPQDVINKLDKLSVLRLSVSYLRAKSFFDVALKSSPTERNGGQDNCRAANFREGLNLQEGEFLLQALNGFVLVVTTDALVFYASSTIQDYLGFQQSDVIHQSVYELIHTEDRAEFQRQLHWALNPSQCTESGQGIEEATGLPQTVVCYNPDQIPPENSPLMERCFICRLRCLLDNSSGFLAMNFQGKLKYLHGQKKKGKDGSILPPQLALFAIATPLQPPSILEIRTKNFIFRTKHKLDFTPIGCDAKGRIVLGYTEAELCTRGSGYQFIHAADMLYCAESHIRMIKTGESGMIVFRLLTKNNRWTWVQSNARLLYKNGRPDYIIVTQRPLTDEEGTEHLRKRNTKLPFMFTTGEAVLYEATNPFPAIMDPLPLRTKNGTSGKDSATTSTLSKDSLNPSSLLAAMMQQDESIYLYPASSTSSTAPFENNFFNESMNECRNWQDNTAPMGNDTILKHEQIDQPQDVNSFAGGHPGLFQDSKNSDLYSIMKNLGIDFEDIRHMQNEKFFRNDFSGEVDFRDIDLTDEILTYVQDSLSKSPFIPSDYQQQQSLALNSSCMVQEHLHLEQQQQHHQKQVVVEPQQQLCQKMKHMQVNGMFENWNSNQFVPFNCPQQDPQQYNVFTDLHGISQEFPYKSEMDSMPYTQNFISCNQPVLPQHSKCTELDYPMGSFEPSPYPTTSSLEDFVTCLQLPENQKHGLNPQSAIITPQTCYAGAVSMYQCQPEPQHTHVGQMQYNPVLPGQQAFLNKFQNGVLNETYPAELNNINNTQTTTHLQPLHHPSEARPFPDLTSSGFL

[8] = molecular target: T3, Dual specificity protein phosphatase 6 (Rattus norvegicus, UniProt Q64346); test: inhibition of rat DUSP6 enzyme activity – biochemical, in vitro, primary screen (AID 425)
T3 sequence (Q64346 whole entry): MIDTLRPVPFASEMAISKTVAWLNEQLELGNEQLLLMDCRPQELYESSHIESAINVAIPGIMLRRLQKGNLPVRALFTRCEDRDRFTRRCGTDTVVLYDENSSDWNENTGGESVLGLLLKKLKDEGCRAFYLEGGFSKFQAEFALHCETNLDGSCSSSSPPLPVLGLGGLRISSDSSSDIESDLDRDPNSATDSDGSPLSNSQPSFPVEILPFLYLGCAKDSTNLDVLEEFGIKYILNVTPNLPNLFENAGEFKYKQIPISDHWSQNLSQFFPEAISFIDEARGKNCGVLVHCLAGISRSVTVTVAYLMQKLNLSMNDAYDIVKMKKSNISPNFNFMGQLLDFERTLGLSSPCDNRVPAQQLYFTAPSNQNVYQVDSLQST

[9] = molecular target: Eukaryotic translation initiation factor 4E (Mus musculus, UniProt P63073); test: blockers of eIF4G binding by eIF4E – biochemical, TR-FRET, dose response (AID 855); assay type: functional;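 note: potency for disrupting eIF4E binding to eIF4GI seen as loss of FRET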
[10] = molecular target: Bcl-2-like protein 10 (Homo sapiens, UniProt Q9HD36); test: Bcl-B/TR3 peptide binding disruption – biochemical, fluorescence polarization, FITC-TR3 peptide, selectivity assay for Bfl-1 inhibitor project, primary screen (AID 748);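 note: fluorescence polarization from a fluorescein-labelled TR3 peptide binding purified Bcl-B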
[11] = molecular target: T4, Tyrosine-protein phosphatase non-receptor type 7 (Homo sapiens, UniProt P35236); test: HePTP tyrosine phosphatase activity blockers – biochemical, absorbance, leukemia target, primary screen (AID 521); assay type: functional
T4 sequence (P35236 whole entry): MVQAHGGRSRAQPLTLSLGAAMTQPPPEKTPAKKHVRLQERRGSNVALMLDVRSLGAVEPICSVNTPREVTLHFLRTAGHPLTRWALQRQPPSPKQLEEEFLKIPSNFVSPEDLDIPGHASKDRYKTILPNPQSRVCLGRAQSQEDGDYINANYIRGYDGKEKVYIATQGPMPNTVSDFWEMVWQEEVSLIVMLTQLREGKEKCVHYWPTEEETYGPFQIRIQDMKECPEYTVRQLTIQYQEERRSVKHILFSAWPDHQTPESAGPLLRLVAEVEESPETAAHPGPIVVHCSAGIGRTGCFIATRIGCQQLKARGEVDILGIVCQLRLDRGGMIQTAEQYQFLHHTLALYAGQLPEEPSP

[12] = NIH-3T3 fibroblast cytotoxicity, dose response, cytotoxicity control, cell-based, fluorescence, Alamar Blue, secondary assay (AID 2327); assay type: functional;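 note: NIH-3T3 mouse fibroblasts cultured with fluconazole at 8 µg/mL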
[13] = Luminescence Cell-Based Dose Retest to Confirm Inhibitors of Cancer Stem Cells. [Related pubchem assays (depositor defined):AID2717, AID2721]; assay type: functional; conditions: Homo sapiens
[14] = fluconazole-exposed Candida albicans growth modulators – fluorescence, retest, confirmation (AID 2467); assay type: functional, cell-based
[15] = molecular target: NADPH oxidase 1 (Homo sapiens, UniProt Q9Y5S8); assay type: functional, cell-based;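 note: Cell-based assay with luminescence read-out, IC50 derived from inhibitor dose-response curves; intracellular ROS from endogenous NOX1 in intact HT29 colon cancer cells; potency of inhibitors that lower the ROS luminescence signal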
[16] = molecular target: T5, Estrogen receptor beta (Homo sapiens, UniProt Q92731); test: blockers of SRC-3 recruitment to ERβ – biochemical, ELISA, streptavidin-HRP readout, orthogonal assay, confirmation (AID 1060)
[17] = molecular target: T5, Estrogen receptor beta
[18] = molecular target: Acyl-homoserine lactone acylase PvdQ (Pseudomonas aeruginosa (strain LESB58), UniProt Q9I194); test: PvdQ acylase enzyme activity blockers – biochemical, fluorescence, plate reader and imaging, cherry-picks, dose response (AID 493231)
[19] = molecular target: T6, Small ubiquitin-related modifier 1 (Homo sapiens, UniProt P63165); test: SUMO1 protein-protein binding blockers, potency – biochemical, FRET, dose response (AID 624383); assay type: functional; conditions: read-out: IC50_Mean
[20] = molecular target: Ras and Rab interactor 1/Tyrosine-protein kinase ABL1 (Homo sapiens, UniProt P00519+Q13671); assay type: functional;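 note: biochemical TR-FRET dose-response test measuring inhibition of binding between Rin1 and Abl proteins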
[21] = molecular target: T7, Bifunctional protein GlmU (Mycobacterium tuberculosis, UniProt P9WMN3); test: Inhibitors of Mycobacterial Glucosamine-1-phosphate acetyl transferase (GlmU). Secondary screen.; set-up: species or system Mycobacterium tuberculosis H37Rv
T7 sequence (P9WMN3 whole entry): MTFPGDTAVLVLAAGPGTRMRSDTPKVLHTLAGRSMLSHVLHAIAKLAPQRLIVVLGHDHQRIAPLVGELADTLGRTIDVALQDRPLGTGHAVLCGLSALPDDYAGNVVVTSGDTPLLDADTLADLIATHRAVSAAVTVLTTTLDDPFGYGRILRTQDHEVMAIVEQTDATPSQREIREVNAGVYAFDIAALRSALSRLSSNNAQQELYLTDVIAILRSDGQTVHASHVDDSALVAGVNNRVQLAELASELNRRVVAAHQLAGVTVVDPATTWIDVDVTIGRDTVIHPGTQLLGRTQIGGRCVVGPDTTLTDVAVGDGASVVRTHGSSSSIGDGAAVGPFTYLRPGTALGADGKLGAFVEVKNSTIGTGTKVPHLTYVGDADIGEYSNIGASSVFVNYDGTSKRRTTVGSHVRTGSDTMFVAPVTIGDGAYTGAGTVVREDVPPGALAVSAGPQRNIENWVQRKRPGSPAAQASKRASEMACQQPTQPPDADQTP

[22] = molecular target: T6, Small ubiquitin-related modifier 1; test: SUMO1 protein interaction blockers, potency – biochemical, fluorescence polarization, uHTS hits, dose response (AID 624382); assay type: functional; conditions: read-out: IC50_Mean
[23] = molecular target: T8, Induced myeloid leukemia cell differentiation protein Mcl-1 (Homo sapiens, UniProt Q07820); test: blockers of MCL1 binding to BIM peptide – biochemical, fluorescence polarization, BIM-BH3 peptide, 1536-well, dose response (AID 2217)
[24] = system: INS1; test: INS-1E survival protection against cytokine death – cell-based, luminescence, retest, dose response (AID 449756); assay type: functional; conditions: Rattus norvegicus;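 note: cell death triggered by IL-1 beta plus TNF-alpha plus IFN-gamma mixture; protective hits raise ATP signal compared with cytokine alone wells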
[25] = molecular target: T9, SUMO-activating enzyme (Homo sapiens, UniProt Q9UBT2); test: blockers of UBC9-mediated SUMO conjugation – biochemical, AlphaScreen, SUMOylation inhibitor project, confirmation (AID 2018); assay type: functional
[26] = molecular target: T8, Induced myeloid leukemia cell differentiation protein Mcl-1; assay type: functional
[27] = molecular target: T9, SUMO-activating enzyme; test: blockers of SAE1/SAE2–UBC9 SUMO transfer – biochemical, HTRF, uHTS, primary screen (AID 2006); assay type: protein-complex assay
[28] = molecular target: Bcl-2-like protein 1 (Homo sapiens, UniProt Q07817); test: blockers of BCLXL peptide binding – biochemical, fluorescence polarization, 1536-well, selectivity assay for MCL1 inhibitor project, dose response (AID 2218)

T6 sequence (P63165 whole entry): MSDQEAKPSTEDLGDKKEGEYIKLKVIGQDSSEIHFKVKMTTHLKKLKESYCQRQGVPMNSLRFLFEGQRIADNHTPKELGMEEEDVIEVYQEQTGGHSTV
T9 sequence (Q9UBE0 whole entry): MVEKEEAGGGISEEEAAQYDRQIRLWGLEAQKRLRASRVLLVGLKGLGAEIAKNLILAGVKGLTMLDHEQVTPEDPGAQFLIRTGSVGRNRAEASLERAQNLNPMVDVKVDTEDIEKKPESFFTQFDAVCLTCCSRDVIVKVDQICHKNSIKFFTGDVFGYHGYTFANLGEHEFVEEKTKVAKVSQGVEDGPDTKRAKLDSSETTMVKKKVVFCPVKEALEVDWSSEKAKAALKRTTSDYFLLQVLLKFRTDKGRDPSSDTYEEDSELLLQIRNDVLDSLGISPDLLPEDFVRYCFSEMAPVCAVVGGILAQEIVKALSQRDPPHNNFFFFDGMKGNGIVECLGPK
T9 sequence (Q9UBT2 whole entry): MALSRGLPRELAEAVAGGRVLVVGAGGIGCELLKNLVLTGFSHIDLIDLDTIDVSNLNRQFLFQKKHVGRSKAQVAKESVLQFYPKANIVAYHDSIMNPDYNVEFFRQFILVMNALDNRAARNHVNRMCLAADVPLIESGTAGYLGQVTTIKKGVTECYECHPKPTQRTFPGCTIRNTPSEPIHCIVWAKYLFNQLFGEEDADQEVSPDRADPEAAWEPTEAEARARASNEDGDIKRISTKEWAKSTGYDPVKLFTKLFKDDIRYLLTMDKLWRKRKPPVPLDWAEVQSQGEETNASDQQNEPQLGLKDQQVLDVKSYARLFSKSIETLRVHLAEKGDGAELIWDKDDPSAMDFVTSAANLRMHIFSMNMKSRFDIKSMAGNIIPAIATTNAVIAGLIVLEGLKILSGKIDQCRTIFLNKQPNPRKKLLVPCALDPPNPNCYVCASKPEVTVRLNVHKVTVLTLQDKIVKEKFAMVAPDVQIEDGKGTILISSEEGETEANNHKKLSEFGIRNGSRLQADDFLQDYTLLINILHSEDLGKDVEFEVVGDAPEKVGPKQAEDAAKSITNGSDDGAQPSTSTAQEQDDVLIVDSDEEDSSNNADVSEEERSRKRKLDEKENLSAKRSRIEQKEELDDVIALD
T8 sequence (Q07820 whole entry): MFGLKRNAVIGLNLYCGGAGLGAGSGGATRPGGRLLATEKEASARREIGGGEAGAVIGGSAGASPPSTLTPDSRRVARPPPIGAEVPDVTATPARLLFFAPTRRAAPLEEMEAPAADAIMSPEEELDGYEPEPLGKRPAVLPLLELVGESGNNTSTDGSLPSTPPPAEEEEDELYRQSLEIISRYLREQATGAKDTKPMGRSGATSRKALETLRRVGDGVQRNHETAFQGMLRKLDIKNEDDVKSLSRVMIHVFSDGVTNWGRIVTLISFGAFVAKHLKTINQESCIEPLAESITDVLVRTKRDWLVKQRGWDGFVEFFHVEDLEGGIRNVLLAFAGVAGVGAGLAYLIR
Acyl-homoserine lactone acylase PvdQ, sequence (Q9I194 24-193 limits assumed): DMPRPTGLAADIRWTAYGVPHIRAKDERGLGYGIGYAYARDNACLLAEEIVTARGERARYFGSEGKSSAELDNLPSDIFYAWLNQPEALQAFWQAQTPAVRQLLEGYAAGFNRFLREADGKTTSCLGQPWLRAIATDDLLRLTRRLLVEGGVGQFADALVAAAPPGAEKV
Acyl-homoserine lactone acylase PvdQ, sequence (Q9I194 217-762 limits assumed): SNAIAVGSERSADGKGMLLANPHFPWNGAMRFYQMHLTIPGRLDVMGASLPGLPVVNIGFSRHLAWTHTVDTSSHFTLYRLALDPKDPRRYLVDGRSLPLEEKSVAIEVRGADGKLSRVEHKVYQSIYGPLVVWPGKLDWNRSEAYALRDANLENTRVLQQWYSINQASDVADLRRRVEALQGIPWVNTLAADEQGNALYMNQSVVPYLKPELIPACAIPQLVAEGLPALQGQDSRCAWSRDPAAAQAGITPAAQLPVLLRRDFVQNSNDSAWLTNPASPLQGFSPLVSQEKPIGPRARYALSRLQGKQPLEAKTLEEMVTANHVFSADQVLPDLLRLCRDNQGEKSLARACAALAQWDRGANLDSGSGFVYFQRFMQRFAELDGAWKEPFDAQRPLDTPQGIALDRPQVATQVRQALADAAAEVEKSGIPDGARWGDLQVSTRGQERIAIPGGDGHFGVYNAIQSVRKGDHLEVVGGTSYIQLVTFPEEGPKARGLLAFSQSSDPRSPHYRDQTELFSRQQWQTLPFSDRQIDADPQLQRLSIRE
Ion channel NompC, sequence (Q7T1G6 whole entry): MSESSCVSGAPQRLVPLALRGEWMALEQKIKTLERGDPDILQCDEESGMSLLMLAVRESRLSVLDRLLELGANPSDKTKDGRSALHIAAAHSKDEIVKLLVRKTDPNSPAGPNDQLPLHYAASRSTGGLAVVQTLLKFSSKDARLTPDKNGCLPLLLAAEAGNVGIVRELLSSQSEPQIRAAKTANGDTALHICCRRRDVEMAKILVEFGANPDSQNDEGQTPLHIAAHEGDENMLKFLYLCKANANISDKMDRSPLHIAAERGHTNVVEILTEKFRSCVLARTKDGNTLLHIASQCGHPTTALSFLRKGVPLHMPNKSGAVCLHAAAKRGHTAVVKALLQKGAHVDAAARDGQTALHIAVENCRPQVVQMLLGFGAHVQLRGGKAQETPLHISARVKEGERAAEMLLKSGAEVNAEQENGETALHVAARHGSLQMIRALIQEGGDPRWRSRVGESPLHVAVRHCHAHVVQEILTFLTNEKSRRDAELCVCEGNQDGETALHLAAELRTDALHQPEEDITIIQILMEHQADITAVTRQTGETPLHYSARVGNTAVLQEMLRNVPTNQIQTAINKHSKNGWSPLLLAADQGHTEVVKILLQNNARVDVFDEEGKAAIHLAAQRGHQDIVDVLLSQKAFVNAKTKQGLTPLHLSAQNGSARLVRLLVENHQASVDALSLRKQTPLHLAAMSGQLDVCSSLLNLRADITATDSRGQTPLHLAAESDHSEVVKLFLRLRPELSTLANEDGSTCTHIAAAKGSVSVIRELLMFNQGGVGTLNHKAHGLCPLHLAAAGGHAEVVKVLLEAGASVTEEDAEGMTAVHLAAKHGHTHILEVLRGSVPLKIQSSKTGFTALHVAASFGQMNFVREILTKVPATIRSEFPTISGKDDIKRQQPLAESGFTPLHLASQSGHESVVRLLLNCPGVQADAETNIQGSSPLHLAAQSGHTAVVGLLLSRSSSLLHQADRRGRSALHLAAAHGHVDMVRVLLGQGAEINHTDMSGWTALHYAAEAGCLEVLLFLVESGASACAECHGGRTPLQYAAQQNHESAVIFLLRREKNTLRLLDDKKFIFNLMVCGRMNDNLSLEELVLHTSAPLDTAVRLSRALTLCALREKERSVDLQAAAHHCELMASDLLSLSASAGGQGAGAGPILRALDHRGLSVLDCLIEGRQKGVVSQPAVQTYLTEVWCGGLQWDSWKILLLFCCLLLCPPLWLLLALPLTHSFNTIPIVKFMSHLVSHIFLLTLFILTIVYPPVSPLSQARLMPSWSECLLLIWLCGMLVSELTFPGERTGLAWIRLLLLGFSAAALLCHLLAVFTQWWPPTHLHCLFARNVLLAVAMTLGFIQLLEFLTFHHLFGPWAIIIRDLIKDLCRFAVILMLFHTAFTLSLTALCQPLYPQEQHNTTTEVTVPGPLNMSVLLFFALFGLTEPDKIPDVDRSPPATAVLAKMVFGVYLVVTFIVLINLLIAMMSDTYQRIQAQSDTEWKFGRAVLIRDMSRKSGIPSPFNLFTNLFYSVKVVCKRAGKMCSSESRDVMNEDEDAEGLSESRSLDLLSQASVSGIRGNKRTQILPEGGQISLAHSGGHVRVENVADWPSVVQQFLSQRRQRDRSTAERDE
NADPH oxidase 1, sequence (Q9Y5S8 whole entry): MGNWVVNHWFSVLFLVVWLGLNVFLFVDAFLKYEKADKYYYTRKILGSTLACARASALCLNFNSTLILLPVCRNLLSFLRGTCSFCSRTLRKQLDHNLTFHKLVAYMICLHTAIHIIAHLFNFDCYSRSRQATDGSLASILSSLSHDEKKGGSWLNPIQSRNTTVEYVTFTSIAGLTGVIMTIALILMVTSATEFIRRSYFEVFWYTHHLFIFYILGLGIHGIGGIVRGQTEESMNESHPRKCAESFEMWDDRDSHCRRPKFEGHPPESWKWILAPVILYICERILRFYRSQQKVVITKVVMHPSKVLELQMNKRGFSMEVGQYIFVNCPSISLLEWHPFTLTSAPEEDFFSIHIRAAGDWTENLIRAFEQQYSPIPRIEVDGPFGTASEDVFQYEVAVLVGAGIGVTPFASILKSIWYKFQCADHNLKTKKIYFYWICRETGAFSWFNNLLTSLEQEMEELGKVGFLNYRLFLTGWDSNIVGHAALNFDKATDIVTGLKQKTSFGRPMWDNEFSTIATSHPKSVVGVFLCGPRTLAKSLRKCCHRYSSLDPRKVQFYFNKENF
Mucolipin-3, sequence (Q8TDD5 whole entry): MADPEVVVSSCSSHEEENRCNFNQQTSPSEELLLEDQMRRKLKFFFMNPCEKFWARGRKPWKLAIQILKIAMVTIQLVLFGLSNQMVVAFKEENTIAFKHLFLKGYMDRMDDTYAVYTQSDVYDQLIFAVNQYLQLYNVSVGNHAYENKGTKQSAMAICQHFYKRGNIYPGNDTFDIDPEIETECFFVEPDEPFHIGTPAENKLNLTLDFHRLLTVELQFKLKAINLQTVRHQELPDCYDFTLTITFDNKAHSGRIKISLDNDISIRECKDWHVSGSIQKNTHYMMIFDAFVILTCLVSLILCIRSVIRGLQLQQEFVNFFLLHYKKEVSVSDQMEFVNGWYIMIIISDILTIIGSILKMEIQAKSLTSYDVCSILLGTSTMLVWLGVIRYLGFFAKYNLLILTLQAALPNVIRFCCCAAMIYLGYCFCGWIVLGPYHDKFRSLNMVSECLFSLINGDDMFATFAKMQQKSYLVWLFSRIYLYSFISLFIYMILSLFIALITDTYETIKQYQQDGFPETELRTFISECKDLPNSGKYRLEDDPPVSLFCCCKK

C=C(C)COc1ccc(-c2n[nH]cc2Oc2ccccc2OC)c(O)c1
EC50 [1]: 12.3 µM (active)
IC50 [2]: 1.91 µM (active)
EC50 [3]: 9.78 µM (active)
EC50 [4]: > 53 µM (inactive)

O=S(=O)(Oc1ccccc1N1CCCCC1)c1ccccc1
EC50 [5]: > 29.9 µM (not active)
EC50 [6]: > 29.9 µM (not active)

COc1ccc(C(=O)Nc2cc(OC)c(NC(=O)c3ccco3)cc2OC)cc1
EC50 [7]: 1.76 µM (active)

O=C(OC1CCCCC1)c1ccc2c(c1)C1C=CCC1C(C(=O)O)N2 (stereo not given)
IC50 [8]: 1.83 µM (active)
IC50 [9]: 5.02 µM (active)
IC50 [10]: 2 µM (active)
IC50 [11]: 0.84 µM (active)

Cc1ccc(S(=O)(=O)c2c(C)nn(C(C)(C)C)c2OC(=O)c2ccc(Br)o2)cc1
EC50 [1]: 4.41 µM (active)
EC50 [12]: > 160 µM (inconclusive)
AC50 [13]: 1.67 µM (active)
EC50 [3]: 4.56 µM (active)
EC50 [14]: 0.805 µM (active)

COc1cc([N+](=O)[O-])ccc1NC(=O)Nc1ccc(Oc2ccccc2)cc1
IC50 [15]: > 17 µM (not active)

COc1cc(CCC(=O)OCC(=O)Nc2ncc(Cl)cc2Cl)cc(OC)c1OC
IC50 [16]: 102 µM (not active)
IC50 [17]: 9.58 µM (active)

COc1ccc(C(C#N)c2ccc(Cl)nn2)cc1 (stereo not given)
AC50 [18]: 6.48 µM (active)

COn1cnnc1-c1ccccc1
IC50 [11]: > 100 µM (not active)

N#CC(c1ccc(Cl)nn1)c1c(F)cccc1Cl (stereo not given)
AC50 [18]: 4.04 µM (active)

C=C(NNc1c(F)c(F)nc(F)c1F)c1ccncc1
IC50 [15]: > 17 µM (not active)

Cc1ccc(S(=O)(=O)c2c(C)nn(C(C)(C)C)c2OC(=O)C(C)(C)C)cc1
EC50 [5]: > 29.9 µM (not active)
EC50 [6]: 5.15 µM (active)

COC(=O)c1cc(O)cc(OC)c1Oc1cc(C)cc(O)c1C(=O)O [ASTERRIC ACID]
IC50 [19]: 8.12 µM (active)
IC50 [20]: 20.7 µM (inactive)
IC50 [21]: 82.7 µM (active)
IC50 [22]: > 66.6 µM (inactive)
IC50 [23]: 5.48 µM (active)
AC50 [24]: 8.13 µM (active)
IC50 [25]: 7.42 µM (active)
IC50 [26]: 2.42 µM (not active)
IC50 [27]: 17.7 µM (active)
IC50 [28]: 54.2 µM (not active)
